This note sets out measurements from patent US10029992B2, “Diaminotriazine compounds and their use as herbicides” (BASF SE, priority 2014, dated 2018).

Holding throughout (assay): Greenhouse experiment, pre-emergence treatment
What all share (settings): pre-emergence method

Experiment [1] concerns ABUTH. It counts as in vivo, Abutilon theophrasti. The text has this: (§1) The culture containers used were plastic flowerpots containing loamy sand with approximately 3.0% of humus as the substrate. The seeds of the test plants were sown separately for each species.
(§2) For the pre-emergence treatment, the active ingredients, which had been suspended or emulsified in water, were applied directly after sowing by means of finely distributing nozzles. The containers were irrigated gently to promote germination and growth and subsequently covered with transparent plastic hoods until the plants had rooted. This cover caused uniform germination of the test plants, unless this had been impaired by the active ingredients.
(§3) Depending on the species, the plants were kept at 10-25° C. or 20-35° C., respectively.
(§4) The test period extended over 2 to 4 weeks. During this time, the plants were tended, and their response to the individual treatments was evaluated.
(§5) Evaluation was carried out using a scale from 0 to 100. 100 means no emergence of the plants, or complete destruction of at least the aerial moieties, and 0 means no damage, or normal course of growth. A moderate herbicidal activity is given at values of at least 60, a good herbicidal activity is given at values of at least 70, and a very good herbicidal activity is given at values of at least 85.
(§6) The plants used in the greenhouse experiments were of the following species: […]

For experiment [2], the system named is APESV. The class given is in vivo, Apera spica-venti.
From the text: as §1, §2, §3, §4, §5, §6

Experiment [3] has as its system ECHCG. The class given is in vivo, Echinochloa crus-galli.
From the text: as §1, §2, §3, §4, §5, §6

The subject of experiment [4] is SETFA. It counts as in vivo, Setaria faberi. From the text:
(§7) The seeds of the test plants were sown separately for each species. For the pre-emergence treatment, the active ingredients, which had been suspended or emulsified in water, were applied directly after sowing by means of finely distributing nozzles. The containers were irrigated gently to promote germination and growth and subsequently covered with transparent plastic hoods until the plants had rooted. This cover caused uniform germination of the test plants, unless this had been impaired by the active ingredients. Depending on the species, the plants were kept at 10-25° C. or 20-35° C., respectively. The test period extended over 2 to 4 weeks. During this time, the plants were tended, and their response to the individual treatments was evaluated. Evaluation was carried out using a scale from 0 to 100. 100 means no emergence of the plants, or complete destruction of at least the aerial moieties, and 0 means no damage, or normal course of growth. A moderate herbicidal activity is given at values of at least 60, a good herbicidal activity is given at values of at least 70, and a very good herbicidal activity is given at values of at least 85. […] [table]

Experiment [5] deals with AMARE. The class given is in vivo, Amaranthus retroflexus.
From the text: as §7

Take `Cc1cc(C)cc(Sc2cccc(F)c2Nc2nc(N)nc(C(C)(C)F)n2)c1` [Example 2]: the “herbicidal activity against ABUTH” value in experiment [1] (application rate 1000 g/ha) is “good (a good herbicidal activity is given at values of at least 70)”.

Regarding `CC(C)c1cccc(Oc2cccc(F)c2Nc2nc(N)nc(C(C)(C)F)n2)c1` [Example 89], the “herbicidal activity against ABUTH” value in experiment [1] (application rate 500 g/ha) is “very good (a very good herbicidal activity is given at values of at least 85)”. Moreover, in experiment [2] (application rate 500 g/ha), the “herbicidal activity against APESV” value was “very good (a very good herbicidal activity is given at values of at least 85)”. The “herbicidal activity against ECHCG” value in experiment [3] (application rate 500 g/ha) is “very good (a very good herbicidal activity is given at values of at least 85)”.

With `Cc1cc(C)cc(Oc2cccc(F)c2Nc2nc(N)nc(C(C)F)n2)c1` (stereo not shown) [Example 11], the “herbicidal activity against ABUTH” value in experiment [1] (application rate 0.125 kg/ha) is listed as “very good (a very good herbicidal activity is given at values of at least 85)”. Further, in experiment [3] (application rate 0.125 kg/ha), the “herbicidal activity against ECHCG” value is “very good (a very good herbicidal activity is given at values of at least 85)”. For the same compound, the “herbicidal activity against SETFA” value in experiment [4] (application rate 0.125 kg/ha) is listed as “very good (a very good herbicidal activity is given at values of at least 85)”.

As for `CC(C)(F)c1nc(N)nc(Nc2c(F)cccc2Oc2cccc(OC(F)(F)F)c2)n1` [Example 97], the “herbicidal activity against ABUTH” value in experiment [1] (application rate 500 g/ha) was “very good (a very good herbicidal activity is given at values of at least 85)”. Further, in experiment [3] (application rate 500 g/ha), the “herbicidal activity against ECHCG” value was “very good (a very good herbicidal activity is given at values of at least 85)”. In experiment [4] (application rate 500 g/ha), the “herbicidal activity against SETFA” value is reported as “very good (a very good herbicidal activity is given at values of at least 85)”.

For `CC(C)(F)c1nc(N)nc(Nc2c(F)cccc2Oc2cc(F)cc(F)c2)n1` [Example 24], in experiment [1] (application rate 0.25 kg/ha), the “herbicidal activity against ABUTH” value is “very good (a very good herbicidal activity is given at values of at least 85)”. Further, the “herbicidal activity against APESV” value in experiment [2] (application rate 0.25 kg/ha) is given as “very good (a very good herbicidal activity is given at values of at least 85)”. For the same compound, in experiment [3] (application rate 0.25 kg/ha), the “herbicidal activity against ECHCG” value was “very good (a very good herbicidal activity is given at values of at least 85)”.

For the compound `CC(C)(F)c1nc(N)nc(Nc2c(F)cccc2Oc2cc(C(F)(F)F)cc(C(F)(F)F)c2)n1` [Example 12], the “herbicidal activity against AMARE” value in experiment [5] (application rate 0.25 kg/ha) is reported as “very good (a very good herbicidal activity is given at values of at least 85)”. In experiment [2] (application rate 0.25 kg/ha), the “herbicidal activity against APESV” value is “very good (a very good herbicidal activity is given at values of at least 85)”. Moreover, the “herbicidal activity against SETFA” value in experiment [4] (application rate 0.25 kg/ha) was “very good (a very good herbicidal activity is given at values of at least 85)”.

`Cc1cc(C)cc(Oc2cccc(F)c2Nc2nc(N)nc(C3(F)CCCC3)n2)c1` [Example 96]: the “herbicidal activity against ABUTH” value in experiment [1] (application rate 500 g/ha) is on record as “very good (a very good herbicidal activity is given at values of at least 85)”. In addition, the “herbicidal activity against ECHCG” value in experiment [3] (application rate 500 g/ha) was “very good (a very good herbicidal activity is given at values of at least 85)”. The “herbicidal activity against SETFA” value in experiment [4] (application rate 500 g/ha) is listed as “very good (a very good herbicidal activity is given at values of at least 85)”.

As for `CC(C)(F)c1nc(N)nc(Nc2c(F)cccc2Oc2cc(Cl)cc(Cl)c2)n1` [Example 13], the “herbicidal activity against AMARE” value in experiment [5] (application rate 0.25 kg/ha) was “very good (a very good herbicidal activity is given at values of at least 85)”. Also, the “herbicidal activity against APESV” value in experiment [2] (application rate 0.25 kg/ha) is on record as “very good (a very good herbicidal activity is given at values of at least 85)”. The “herbicidal activity against SETFA” value in experiment [4] (application rate 0.25 kg/ha) is reported as “very good (a very good herbicidal activity is given at values of at least 85)”.

As for `Cc1cc(C)cc(Oc2cccc(C#N)c2Nc2nc(N)nc(C(C)(C)F)n2)c1` [Example 100], the “herbicidal activity against ABUTH” value in experiment [1] (application rate 250 g/ha) was “good (a good herbicidal activity is given at values of at least 70)”. For the same compound, in experiment [2] (application rate 250 g/ha), the “herbicidal activity against APESV” value is “very good (a very good herbicidal activity is given at values of at least 85)”. Besides, the “herbicidal activity against ECHCG” value in experiment [3] (application rate 250 g/ha) was “very good (a very good herbicidal activity is given at values of at least 85)”.

Turning to `Cc1cc(C)cc(Oc2cccc(F)c2Nc2nc(N)nc(C(C)(C)C)n2)c1` [Example 16], in experiment [1] (application rate 2000 g/ha), the “herbicidal activity against ABUTH” value is recorded as “very good (a very good herbicidal activity is given at values of at least 85)”. Also, the “herbicidal activity against AMARE” value in experiment [5] (application rate 2000 g/ha) was “very good (a very good herbicidal activity is given at values of at least 85)”. Moreover, in experiment [2] (application rate 2000 g/ha), the “herbicidal activity against APESV” value was “very good (a very good herbicidal activity is given at values of at least 85)”.

Turning to `CC(C)(F)c1nc(N)nc(Nc2c(F)cccc2Oc2cc(F)cc(OC(F)F)c2)n1` [Example 82], in experiment [1] (application rate 125 g/ha), the “herbicidal activity against ABUTH” value is given as “very good (a very good herbicidal activity is given at values of at least 85)”. The “herbicidal activity against AMARA” value in experiment [5] (application rate 125 g/ha) is recorded as “very good (a very good herbicidal activity is given at values of at least 85)”. Further, the “herbicidal activity against SETFA” value in experiment [4] (application rate 125 g/ha) was “very good (a very good herbicidal activity is given at values of at least 85)”.

For `CC(C)(F)c1nc(N)nc(Nc2c(F)c(F)cc(Oc3ccccc3)c2F)n1` [Example 42], in experiment [1] (application rate 0.5 kg/ha), the “herbicidal activity against ABUTH” value is listed as “good to very good”. Also, the “herbicidal activity against AMARE” value in experiment [5] (application rate 0.5 kg/ha) is listed as “good to very good”. Also, the “herbicidal activity against ECHCG” value in experiment [3] (application rate 0.5 kg/ha) is “good to very good”.

Take `Cc1cc(OCC2CCC2)cc(Oc2cccc(F)c2Nc2nc(N)nc(C(C)(C)F)n2)c1` [Example 83]: the “herbicidal activity against AMARA” value in experiment [5] (application rate 250 g/ha) was “very good (a very good herbicidal activity is given at values of at least 85)”. Also, the “herbicidal activity against APESV” value in experiment [2] (application rate 250 g/ha) was “good (a good herbicidal activity is given at values of at least 70)”. Further, the “herbicidal activity against ECHCG” value in experiment [3] (application rate 250 g/ha) is recorded as “good (a good herbicidal activity is given at values of at least 70)”.

On to `CC(C)(F)c1nc(N)nc(Nc2c(F)cccc2Oc2cccc(F)c2)n1` [Example 10], for which the “herbicidal activity against AMARE” value in experiment [5] (application rate 0.5 kg/ha) is recorded as “very good (a very good herbicidal activity is given at values of at least 85)”. For the same compound, the “herbicidal activity against APESV” value in experiment [2] (application rate 0.5 kg/ha) is given as “very good (a very good herbicidal activity is given at values of at least 85)”. In experiment [3] (application rate 0.5 kg/ha), the “herbicidal activity against ECHCG” value was “very good (a very good herbicidal activity is given at values of at least 85)”.

Turning to `Cc1cc(OCC(F)(F)F)cc(Oc2cccc(F)c2Nc2nc(N)nc(C(C)(C)F)n2)c1` [Example 81], the “herbicidal activity against ABUTH” value in experiment [1] (application rate 125 g/ha) is given as “good (a good herbicidal activity is given at values of at least 70)”. In addition, the “herbicidal activity against AMARA” value in experiment [5] (application rate 125 g/ha) is given as “very good (a very good herbicidal activity is given at values of at least 85)”. Moreover, the “herbicidal activity against SETFA” value in experiment [4] (application rate 125 g/ha) was “very good (a very good herbicidal activity is given at values of at least 85)”.

As for `Cc1cc(C)cc(Oc2cccc(F)c2Nc2nc(N)nc(C3CCCCC3)n2)c1` [Example 15], the “herbicidal activity against ABUTH” value in experiment [1] (application rate 1000 g/ha) is “very good (a very good herbicidal activity is given at values of at least 85)”.

With `Cc1cc(Cl)cc(Oc2cccc(F)c2Nc2nc(N)nc(C(C)(C)F)n2)c1` [Example 28], in experiment [1] (application rate 0.25 kg/ha), the “herbicidal activity against ABUTH” value was “very good (a very good herbicidal activity is given at values of at least 85)”. The “herbicidal activity against APESV” value in experiment [2] (application rate 0.25 kg/ha) is given as “very good (a very good herbicidal activity is given at values of at least 85)”. Besides, the “herbicidal activity against SETFA” value in experiment [4] (application rate 0.25 kg/ha) is “very good (a very good herbicidal activity is given at values of at least 85)”.

Take `Cc1cc(C)cc(Oc2cccc(F)c2Nc2nc(N)nc(C(C)(C)F)n2)c1` [Example 5]: the “herbicidal activity against ABUTH” value in experiment [1] (application rate 0.25 kg/ha) is recorded as “very good (a very good herbicidal activity is given at values of at least 85)”. Moreover, the “herbicidal activity against ECHCG” value in experiment [3] (application rate 0.25 kg/ha) was “very good (a very good herbicidal activity is given at values of at least 85)”. Also, the “herbicidal activity against SETFA” value in experiment [4] (application rate 0.25 kg/ha) is listed as “very good (a very good herbicidal activity is given at values of at least 85)”.

As to `COC(C)c1nc(N)nc(Nc2c(F)cccc2Oc2cc(C)cc(C)c2)n1` (stereo not shown) [Example 39], the “herbicidal activity against ABUTH” value in experiment [1] (application rate 1000 g/ha) is recorded as “very good (a very good herbicidal activity is given at values of at least 85)”. In addition, the “herbicidal activity against APESV” value in experiment [2] (application rate 1000 g/ha) is given as “very good (a very good herbicidal activity is given at values of at least 85)”.

`Cc1cccc(Oc2cccc(F)c2Nc2nc(N)nc(C(C)(C)F)n2)c1` [Example 7]: the “herbicidal activity against ABUTH” value in experiment [1] (application rate 0.5 kg/ha) is given as “good to very good”. Further, the “herbicidal activity against AMARE” value in experiment [5] (application rate 0.5 kg/ha) is “good to very good”. Moreover, in experiment [3] (application rate 0.5 kg/ha), the “herbicidal activity against ECHCG” value is on record as “good to very good”.

With `Cc1cc(C)cc(Oc2cc(F)c(F)c(Nc3nc(N)nc(C(C)(C)F)n3)c2F)c1` [Example 43], the “herbicidal activity against ABUTH” value in experiment [1] (application rate 0.5 kg/ha) was “good to very good”. In addition, in experiment [5] (application rate 0.5 kg/ha), the “herbicidal activity against AMARE” value is “good to very good”. For the same compound, in experiment [4] (application rate 0.5 kg/ha), the “herbicidal activity against SETFA” value is on record as “good to very good”.
